# Source: BindingDB's records for PubMed 2138666 (Department of Veterans Affairs Medical Center, 1990)
# How the values were obtained:
# [1] = biological target: T1, Alpha-2C adrenergic receptor (Rattus norvegicus, UniProt P22086)
# T1 sequence (P22086 whole entry): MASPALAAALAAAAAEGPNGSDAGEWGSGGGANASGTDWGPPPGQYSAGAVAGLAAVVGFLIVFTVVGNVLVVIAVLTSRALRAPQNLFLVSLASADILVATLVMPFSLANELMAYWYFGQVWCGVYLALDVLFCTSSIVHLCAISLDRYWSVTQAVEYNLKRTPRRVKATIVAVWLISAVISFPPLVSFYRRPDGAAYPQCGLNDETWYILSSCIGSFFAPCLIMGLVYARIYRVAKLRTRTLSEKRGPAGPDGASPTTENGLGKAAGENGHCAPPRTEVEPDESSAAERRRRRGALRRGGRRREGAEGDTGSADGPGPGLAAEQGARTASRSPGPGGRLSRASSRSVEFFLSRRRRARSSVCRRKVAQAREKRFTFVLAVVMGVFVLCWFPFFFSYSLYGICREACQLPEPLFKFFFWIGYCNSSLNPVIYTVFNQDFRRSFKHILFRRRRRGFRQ
# D(2) dopamine receptor = D(2) dopamine receptor (Rattus norvegicus, UniProt P61169)
# D(2) dopamine receptor, sequence (P61169 whole entry): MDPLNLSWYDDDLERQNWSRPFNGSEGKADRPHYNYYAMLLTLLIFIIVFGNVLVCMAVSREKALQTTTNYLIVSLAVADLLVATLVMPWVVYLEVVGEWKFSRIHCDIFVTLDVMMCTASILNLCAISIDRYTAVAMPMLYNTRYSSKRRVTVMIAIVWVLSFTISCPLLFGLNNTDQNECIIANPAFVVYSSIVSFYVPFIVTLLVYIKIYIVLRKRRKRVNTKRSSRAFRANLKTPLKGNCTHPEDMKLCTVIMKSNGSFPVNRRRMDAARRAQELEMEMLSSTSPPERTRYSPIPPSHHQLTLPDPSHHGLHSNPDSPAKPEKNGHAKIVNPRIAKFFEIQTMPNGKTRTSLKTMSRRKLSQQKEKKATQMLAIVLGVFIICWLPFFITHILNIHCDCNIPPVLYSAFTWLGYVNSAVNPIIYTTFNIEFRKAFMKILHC
Structure (SMILES),Ki [1],Ki (D(2) dopamine receptor)
CCN1CCCC1CNC(=O)c1cc(S(N)(=O)=O)ccc1OC (stereo not given) [N-[(1-ethylpyrrolidin-2-yl)methyl]-2-methoxy-5-sulfamoylbenzamide],4.3 µM,–
Nc1cc(Cl)c(N=C2NCCN2)c(Cl)c1 [p-AMINOCLONIDINE],–,> 10 µM
"Clc1cccc(Cl)c1N=C1NCCN1 [2-(2,6-dichloroanilino)-2-imidazoline]",–,> 10 µM
c1ccc2c(c1)OCC(C1=NCCN1)O2 (stereo not given),–,> 10 µM
CC(C)(C)[C@]1(O)CCN2C[C@H]3c4ccccc4CCc4cccc(c43)[C@@H]2C1,0.158 µM,–
